“Also recorded” adds a separate entry of the source. Read-outs that look alike come from different tables or passages of the source. Residues, ends and D or L forms follow the SMILES beside them. No end group written: not given here.
Tests used:
ACE [1] = biological target: T1, ACE (Oryctolagus cuniculus, UniProt P12822); experiment: Kinetics study of ACE inhibition (Lineweaver-Burk / Michaelis-Menten, HHL 15 to 4000 µM); type: biochemical, rabbit; settings: from plot of 1/Vmax against inhibitor concentration; read-out: Kiu (enzyme-inhibitor dissociation constant)
T1 construct: the angiotensin-I-converting enzyme from rabbit lung (2 units/mg protein); purchased Sigma Chemical Co. (St. Louis, MO, USA); host or cells: rabbit lung (tissue-derived)
T1 sequence (P12822 34-1310): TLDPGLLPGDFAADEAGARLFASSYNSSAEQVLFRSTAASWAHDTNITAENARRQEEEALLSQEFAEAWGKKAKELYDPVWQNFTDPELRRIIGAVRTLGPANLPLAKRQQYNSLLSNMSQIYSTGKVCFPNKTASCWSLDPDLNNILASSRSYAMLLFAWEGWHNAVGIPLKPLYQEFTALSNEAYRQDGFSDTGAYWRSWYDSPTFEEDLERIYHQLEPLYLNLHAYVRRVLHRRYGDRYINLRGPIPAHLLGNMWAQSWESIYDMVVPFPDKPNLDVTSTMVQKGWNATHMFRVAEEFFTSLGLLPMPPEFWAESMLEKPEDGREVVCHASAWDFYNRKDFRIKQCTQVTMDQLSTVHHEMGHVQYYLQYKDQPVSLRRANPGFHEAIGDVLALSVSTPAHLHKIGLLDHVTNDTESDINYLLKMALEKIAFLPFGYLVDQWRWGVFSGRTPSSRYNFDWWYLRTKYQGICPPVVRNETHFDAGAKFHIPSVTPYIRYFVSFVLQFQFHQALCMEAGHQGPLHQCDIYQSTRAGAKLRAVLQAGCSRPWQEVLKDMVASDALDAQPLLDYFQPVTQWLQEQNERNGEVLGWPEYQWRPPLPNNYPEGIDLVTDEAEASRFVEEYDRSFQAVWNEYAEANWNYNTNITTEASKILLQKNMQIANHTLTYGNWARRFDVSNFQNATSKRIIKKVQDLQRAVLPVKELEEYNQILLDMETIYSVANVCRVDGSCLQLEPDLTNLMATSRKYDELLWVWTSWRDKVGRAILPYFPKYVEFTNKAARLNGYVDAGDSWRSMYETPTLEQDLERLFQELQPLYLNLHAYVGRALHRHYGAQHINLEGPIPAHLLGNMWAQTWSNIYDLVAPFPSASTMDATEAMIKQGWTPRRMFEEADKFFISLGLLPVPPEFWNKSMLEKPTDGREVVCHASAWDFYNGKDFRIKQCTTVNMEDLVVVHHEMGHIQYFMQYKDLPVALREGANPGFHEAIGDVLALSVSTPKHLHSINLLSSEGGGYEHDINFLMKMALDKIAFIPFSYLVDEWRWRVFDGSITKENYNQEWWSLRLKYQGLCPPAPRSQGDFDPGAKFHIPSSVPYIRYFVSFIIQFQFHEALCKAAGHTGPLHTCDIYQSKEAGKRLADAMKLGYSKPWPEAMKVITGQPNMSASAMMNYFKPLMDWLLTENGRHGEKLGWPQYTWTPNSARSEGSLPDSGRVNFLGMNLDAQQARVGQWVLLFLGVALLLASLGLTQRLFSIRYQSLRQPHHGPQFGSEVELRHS
Procedure: To determine the mode of enzyme inhibition, Lineweaver-Burk plots of 1/v versus 1/[S] were used. ACE inhibition was determined in the presence of five concentrations of HHL from 15 to 4000 µM and four concentrations of peptides, as shown in Table 1.
Enzyme activity was expressed as nmol hippuric acid produced per min of enzymatic reaction. Kiu was calculated from the plot of 1/Vmax against inhibitor concentration at the intercept on the inhibitor concentration axis ([Cornish-Bowden, 2013]). Vmax and Km were calculated using GRAPHPAD PRISM 5 (GraphPad, Software Inc., San Diego, CA). Michaelis-Menten and Lineweaver-Burk plots were also created using the same software.

[2] = biological target: T2, angiotensin-I-converting enzyme from rabbit lung (Oryctolagus cuniculus, UniProt P12822); experiment: ACE inhibitory activity evaluation (HHL substrate, hippuric acid read at 410 nm); type: biochemical; settings: for ACE inhibitory activity (%): Table 5; for ACE-inhibitory capacity (%) With pre-incubation: with pre-incubation with ACE (3 h); for ACE-inhibitory capacity (%) Without pre-incubation: without pre-incubation with ACE
T2 construct: the angiotensin-I-converting enzyme from rabbit lung (2 units/mg protein); purchased Sigma Chemical Co. (St. Louis, MO, USA); host or cells: rabbit lung (tissue-derived)
T2 sequence (P12822 34-1310): T1 sequence (P12822 34-1310)
Procedure: ACE inhibitory potency of peptides was determined following the method described by [Forghani et al. (2016)]. […] The mixture was incubated with Hippuryl-histidyl-leucine (HHL) solution (50 μL) containing 0.1 M borate buffer pH 8.3 and 0.3 M NaCl at 37 °C for 60 min. To terminate the enzymatic reaction, 75 μL of 1 M HCl was added to the mixture. Subsequently 150 μL of pyridine were layered followed by addition of 75 μL of benzenesulfonyl chloride, and the mixture was vortexed for 1 min before being cooled on ice. The absorbance was recorded at 410 nm using a micro plate reader (Labomed, model UVD-2950, USA Power Wave X 340, Biotek Instruments. Inc.,Winooski, VT, USA). The standard curve of hippuric acid (HA) was constructed by plotting absorbance versus _mol of HA produced in 1 mL of reaction volume.

ACE [3] = biological target: T1, ACE; experiment: Effect of ACE on papain-generated peptides: hydrolysis of peptides by ACE followed by RP-HPLC; type: in vitro ADME, rabbit; settings: for degradation of the peptide by ACE (in words): after up to 3 h pre-incubation with ACE; for Peaks: number of RP-HPLC peaks; for percentage of peptide cleavage by ACE: over the whole incubation period (0.5 to 3 h); for metabolised at 1 h / metabolised at 2 h / metabolised at 3 h / metabolised at 0.5 h: rabbit, isolated ACE (angiotensin-converting enzyme) solution, read-out: Cleavage (%)
Procedure: The effect of ACE on papain-generated peptides was analyzed following the method of [Yang et al. (2003)] with some modifications. Briefly, 225 µL of the peptide solution of YGIKVGYAIP,
GGIF, GIFE at concentrations of 2, 4, and 4 mM were separately incubated with 150 µL of ACE (100 mU/mL) at 37 °C. Samples were withdrawn at incubation times of 0, 0.5, 1, 2, and 3 h and kept on ice prior to analysis by HPLC. A 20-µl sample was loaded onto a Hypersil GOLD C18 column (4.6×250 mm) attached to a Shimadzu (Kyoto, Japan) LC 20AT apparatus. The column was conditioned with eluent A (0.1 % TFA in DI) and eluted with 100 % eluent A from 0 to 10 min. The peptides were eluted with eluent B (0.1 % TFA in CH3CN) with a gradient elution of 0–100 % for 10–50 min. The absorbance was read at 215 nm.
To evaluate the possible degrading effects of ACE on the bioactive peptides generated from palm kernel cake proteins prior to examining their inhibitory activity, the peptides were preincubated with ACE in a water bath shaker at 37 °C for 0.5 h, 1 h, 2 h and 3 h, and the resulting peptides were analyzed using RP-HPLC.

ACE [4] = settings: literature peptides, read-out: Kiu, cited from earlier work
[5] = incubation with ACE (100 mU/mL) 37 °C, 0.5 h, peptide 2 mM (YGIKVGYAIP), 4 mM (GGIF, GIFE)

Compound | Ki (ACE [1]) | IC50 [2] | ACE inhibitory activity (%) [2] | ACE-inhibitory capacity (%) With pre-incubation [2] | ACE-inhibitory capacity (%) Without pre-incubation [2] | degradation of the peptide by ACE (in words) (ACE [3]) | Peaks (ACE [3]; incubation with ACE 37 °C, 1 h) | Peaks (ACE [3]; incubation with ACE 37 °C, 2 h) | Peaks (ACE [3]; incubation with ACE 37 °C, 3 h) | Peaks (ACE [3]; [5]) | percentage of peptide cleavage by ACE (ACE [3]) | metabolised at 1 h (ACE [3]; incubation with ACE 37 °C, 1 h) | metabolised at 2 h (ACE [3]; incubation with ACE 37 °C, 2 h) | metabolised at 3 h (ACE [3]; incubation with ACE 37 °C, 3 h) | metabolised at 0.5 h (ACE [3]; [5]) | Ki (ACE [4]; ref He, Aluko & Ju (2014)) | Ki (ACE [4]; ref Girgih, He & Aluko (2014)) | Cleavage (%) (ACE [3]; incubation with ACE 37 °C, 2 h) | Cleavage (%) (ACE [3]; [5])
CC[C@H](C)[C@H](NC(=O)CNC(=O)CN)C(=O)N[C@@H](Cc1ccccc1)C(=O)O [GGIF] (H-GGIF-OH; N-terminus and C-terminus assumed) | 1270 µM | 92 µM | 97 ± 2.17% | 87 ± 2.70% | 97 ± 2.18% | resistant to ACE; also recorded: resistant and were not degraded | 1 | 1 | 1 | 1 | approximately 1.5% | 1 ± 0.2% | 1 ± 0.4% | 2 ± 0.6% | 1 ± 0.1% |  |  |  | 
CC[C@H](C)[C@H](NC(=O)CN)C(=O)N[C@@H](Cc1ccccc1)C(=O)N[C@@H](CCC(=O)O)C(=O)O [GIFE] (H-GIFE-OH; N-terminus and C-terminus assumed) | 18000 µM |  | 40 ± 1.00% | 43 ± 1.80% | 40 ± 1.00% | resistant; also recorded: resistant and were not degraded | 1 | 1 | 1 | 1 | ~0% | 0% | 0% | 0% | 0% |  |  |  | 
RALP |  |  |  |  |  |  |  |  |  |  |  |  |  |  |  | 104 µM |  |  | 
WVYY |  |  |  |  |  |  |  |  |  |  |  |  |  |  |  |  | 60 µM |  | 
WYT |  |  |  |  |  |  |  |  |  |  |  |  |  |  |  |  | 1830 µM |  | 
YGIKVGYAIP [YGIKVGYAIP] | 54 µM | 1 µM | 100 ± 3.00% | 93 ± 2.40% | 100 ± 3.00% | degraded; also recorded: not resistant to ACE | 5 | 5 |  | 5 |  | 84 ± 1.6% | 95 ± 3.2% | 98 ± 3.1% | 70 ± 2.2% |  |  | 95% | 70%
